One assay addresses USP1-UAF1 (Homo sapiens, UniProt O94782). The assay can be described thus: Ubiquitin Rhodamine assay of USP1-UAF1 activity. It counts as biochemical. The protocol:
Certain compounds of the disclosure were assessed for USP1-UAF1 activity in a Ubiquitin Rhodamine assay as described in Biology Example 1.

For the next assay, the system named is MDA-MB-436. The assay can be described thus: Viability assay, BRCA1 mutant cell line MDA-MB-436. In kind it is cell-based. The note with it: Homo sapiens, MDA-MB-436, viability, BRCA1 mutant MDA-MB-436; read-out: MDA-MB-436 rel IC50. An excerpt:
(§1) Table 1 also indicates IC50 values in a viability assay for a non-isogenic pair of BRCA1 mutant (column 5-MDA-MB-436) and BRCA1 WT (column 6—HCC1954) cell lines. These values indicate the effect of treatment with compound on cell survival.

The subject of a further assay is HCC1954. As to the kind of experiment: Viability assay, BRCA1 WT cell line HCC1954. In kind it is cell-based. The note with it: Homo sapiens, HCC1954, viability, read-out: HCC1954 rel IC50.
Excerpt: as §1

Some results are limits rather than exact numbers.

Chain of USP1-UAF1 (O94782 whole entry): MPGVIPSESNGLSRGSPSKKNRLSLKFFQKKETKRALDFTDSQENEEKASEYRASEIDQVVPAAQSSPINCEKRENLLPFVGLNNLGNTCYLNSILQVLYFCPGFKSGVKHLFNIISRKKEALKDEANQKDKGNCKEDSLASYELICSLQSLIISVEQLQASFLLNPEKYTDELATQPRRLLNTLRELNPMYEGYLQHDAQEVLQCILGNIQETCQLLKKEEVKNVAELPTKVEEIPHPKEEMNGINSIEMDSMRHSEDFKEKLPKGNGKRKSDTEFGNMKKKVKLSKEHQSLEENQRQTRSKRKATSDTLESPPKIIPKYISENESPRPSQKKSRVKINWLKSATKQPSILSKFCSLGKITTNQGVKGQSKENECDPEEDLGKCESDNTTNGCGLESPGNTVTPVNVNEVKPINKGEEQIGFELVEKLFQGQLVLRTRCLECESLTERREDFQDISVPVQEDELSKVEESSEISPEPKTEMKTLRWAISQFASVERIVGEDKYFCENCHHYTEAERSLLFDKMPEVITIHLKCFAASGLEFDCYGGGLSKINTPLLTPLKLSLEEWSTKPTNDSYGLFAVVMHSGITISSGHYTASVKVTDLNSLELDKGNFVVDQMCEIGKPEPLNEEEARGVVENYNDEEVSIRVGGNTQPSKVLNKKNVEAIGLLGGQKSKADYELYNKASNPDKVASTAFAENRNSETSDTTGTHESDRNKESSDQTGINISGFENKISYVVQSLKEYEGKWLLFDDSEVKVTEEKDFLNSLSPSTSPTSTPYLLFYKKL
Chain of USP1-UAF1 (Q8TAF3 whole entry partner): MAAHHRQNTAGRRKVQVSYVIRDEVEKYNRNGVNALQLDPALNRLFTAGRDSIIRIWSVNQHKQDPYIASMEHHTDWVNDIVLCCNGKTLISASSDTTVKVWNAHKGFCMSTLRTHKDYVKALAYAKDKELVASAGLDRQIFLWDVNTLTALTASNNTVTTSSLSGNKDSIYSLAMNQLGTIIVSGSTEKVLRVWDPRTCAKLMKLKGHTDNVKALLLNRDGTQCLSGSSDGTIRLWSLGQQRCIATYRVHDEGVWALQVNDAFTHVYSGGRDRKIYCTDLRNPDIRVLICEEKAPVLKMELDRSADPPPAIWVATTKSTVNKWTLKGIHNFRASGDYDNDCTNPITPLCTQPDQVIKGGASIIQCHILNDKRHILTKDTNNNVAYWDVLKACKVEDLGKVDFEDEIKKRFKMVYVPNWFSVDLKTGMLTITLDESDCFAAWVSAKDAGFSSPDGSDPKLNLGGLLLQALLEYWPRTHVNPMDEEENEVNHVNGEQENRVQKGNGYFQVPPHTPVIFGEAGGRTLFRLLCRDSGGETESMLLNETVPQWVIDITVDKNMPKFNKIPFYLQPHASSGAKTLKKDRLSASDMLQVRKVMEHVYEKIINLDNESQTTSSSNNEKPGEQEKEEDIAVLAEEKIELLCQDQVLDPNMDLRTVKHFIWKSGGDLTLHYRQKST

A word on the IC50: it is the concentration needed to halve the response being measured. In the case of `COc1ncnc(C2CC2)c1-c1ncc2c(n1)n(Cc1cc(C)c(-c3nc(C(F)(F)F)cn3C)cc1C)c(=N)n2C` [Example T-026], the IC50 on USP1-UAF1 is 0.1 to 10 µM; in the assay with MDA-MB-436 it was 0.25 to 10 µM; in the assay with HCC1954 it was at least 10 µM.
The like results for `COc1ncncc1-c1ncc2c(n1)n(Cc1ccc(-c3nc(C(F)(F)F)cn3C)cc1)c(=N)n2C` [Example T-058] were, in that order, 0.1 to 10 µM, at least 10 µM and at least 10 µM.
In the case of `CC(C)c1cnccc1-c1ncc2c(n1)n(Cc1ccc(-c3nc(C(F)(F)F)cn3C)cc1)c(=N)n2C` [Example T-096], the IC50 against USP1-UAF1 is 0.1 to 10 µM; with MDA-MB-436 it was 0.25 to 10 µM; with HCC1954, at least 10 µM.
Take `COc1nc(-c2ccccc2C(C)C)nc2c1n(C)c(=N)n2Cc1ccc(-c2nc(C(F)(F)F)cn2C)cc1` [Example A-20, 2-(2-isopropylphenyl)-6-methoxy-7-methyl-9-(4-(1-methyl-4-(trifluoromethyl)-1H-imidazol-2-yl)benzyl)-7,9-dihydro-8H-purin-8-imine]: the IC50 was 0.1 to 10 µM at USP1-UAF1, 0.25 to 10 µM in the assay with MDA-MB-436 and 0.25 to 10 µM with HCC1954.
As for `COc1ccn(-c2ccc(Cn3c(=N)n(C)c4cnc(-c5ccccc5C(C)C)nc43)cc2F)n1` [Example T-074], the half-maximal inhibitory concentration (IC50) against USP1-UAF1 was 0.1 to 10 µM; in the assay on MDA-MB-436, 0.25 to 10 µM; in the assay on HCC1954, 0.25 to 10 µM.
As for `Cn1cc(C(F)(F)F)nc1-c1ccc(Cn2c(=N)n(C)c3cnc(-c4c(C5CC5)cnn4C)nc32)cc1` [Example T-017], the IC50 against USP1-UAF1 was 0.1 to 10 µM; with MDA-MB-436 it was 0.25 to 10 µM; in the assay with HCC1954, at least 10 µM.
In the case of `Cn1cc(C(F)(F)F)nc1-c1ccc(Cn2c(=N)n(C)c3cnc(-c4ccccc4C(F)(F)F)nc32)cn1` [Example T-073], the 50% inhibitory concentration (IC50) was 0.1 to 10 µM against USP1-UAF1, 0.25 to 10 µM with MDA-MB-436 and at least 10 µM in the assay with HCC1954.
`CC(C)c1ccccc1-c1ncc2c(n1)n(Cc1ccc(N3CCC(C(F)(F)F)C3)cc1)c(=N)n2C` (single isomer, unassigned) [Example A-10d, 2-(2-isopropylphenyl)-7-methyl-9-(4-(3-(trifluoromethyl)pyrrolidin-1-yl)benzyl)-7,9-dihydro-8H-purin-8-imine] came in with an IC50 against USP1-UAF1 of 0.1 to 10 µM.
Take `Cn1cc(C(F)(F)F)nc1-c1ccc(Cn2c(=N)n(CC(F)(F)F)c3cnc(-c4c(C(F)(F)F)cnn4C)nc32)cc1` [Example T-101]: the IC50 is below 0.03 µM on USP1-UAF1, 0.1 to 0.25 µM with MDA-MB-436 and 0.25 to 10 µM with HCC1954.
As for `COn1cc(C(F)(F)F)nc1-c1ccc(Cn2c(=N)n(C)c3cnc(-c4ccccc4C(F)(F)F)nc32)nc1` [Example T-048], the values for the IC50 against USP1-UAF1, with MDA-MB-436 and in the assay with HCC1954 were 0.1 to 10 µM, 0.25 to 10 µM and at least 10 µM, respectively.
With `Cn1c(=N)n(Cc2ccc(-c3nc(C(F)(F)F)cn3CCO)cc2)c2nc(-c3ccccc3C(F)(F)F)ncc21` [Example T-083], the figures for the IC50 at USP1-UAF1, in the assay on MDA-MB-436 and in the assay with HCC1954 were 0.1 to 10 µM, 0.25 to 10 µM and at least 10 µM, respectively.
On to `Cc1cnn(C)c1-c1ncc2c(n1)n(Cc1ccc(-c3nc(C(F)(F)F)cn3C)cc1)c(=N)n2C` [Example T-012], for which the IC50 at USP1-UAF1 was 0.1 to 10 µM; in the assay with MDA-MB-436, 0.25 to 10 µM; in the assay on HCC1954, at least 10 µM.
With `Cc1cc(-c2nc(C(F)(F)F)cn2C)cc(C)c1Cn1c(=N)n(C)c2cnc(-c3ccccc3C(F)(F)F)nc21` [Example T-080], the figures for the concentration for half-maximal inhibition (IC50) against USP1-UAF1, in the assay with MDA-MB-436 and in the assay with HCC1954 were 0.1 to 10 µM, 0.25 to 10 µM and 0.25 to 10 µM, respectively.
On to `CC(C)c1ccccc1-c1nc(O)c2c(n1)n(Cc1ccc(-c3nc(C(F)(F)F)cn3C)cc1)c(=N)n2C` [Example A-32, 8-imino-2-(2-isopropylphenyl)-7-methyl-9-(4-(1-methyl-4-(trifluoromethyl)-1H-imidazol-2-yl)benzyl)-8,9-dihydro-7H-purin-6-ol], for which the values for the IC50 against USP1-UAF1, in the assay on MDA-MB-436 and in the assay on HCC1954 were 0.1 to 10 µM, 0.25 to 10 µM and at least 10 µM, respectively.
As to `Cc1nc(-c2ccccc2)nc2c1n(C)c(=N)n2Cc1ccc(-c2nc(C(F)(F)F)cn2C)cc1` (single isomer, unassigned) [Example A-15b, 6,7-dimethyl-9-(4-(1-methyl-4-(trifluoromethyl)-1H-imidazol-2-yl)benzyl)-2-phenyl-7,9-dihydro-8H-purin-8-imine], the IC50 on USP1-UAF1 fell in the range of 0.1 to 10 µM; in the assay with MDA-MB-436 it was 0.25 to 10 µM; with HCC1954 it was 0.25 to 10 µM.
On to `COc1ncnc(C2CC2)c1-c1ncc2c(n1)n(Cc1ccc(-c3nc(C(F)(F)F)cn3C)s1)c(=N)n2C` [Example T-007], for which the concentration for half-maximal inhibition (IC50) was 0.1 to 10 µM on USP1-UAF1, 0.25 to 10 µM in the assay with MDA-MB-436 and at least 10 µM with HCC1954.
Consider `COc1ncnc(C2CC2)c1-c1ncc2c(n1)n(C[C@H]1CC[C@H](c3nc(C(F)(F)F)cn3C)CC1)c(=N)n2C` [Example T-089], for which the figures for the IC50 on USP1-UAF1, in the assay with MDA-MB-436 and in the assay on HCC1954 were 0.1 to 10 µM, 0.25 to 10 µM and at least 10 µM, respectively.
The compound `CC(C)c1ccccc1-c1ncc2c(n1)n(Cc1ccc(N3C[C@@H](C(F)(F)F)C[C@H]3C)cc1)c(=N)n2C` [Example T-024] displayed a 50% inhibitory concentration (IC50) against USP1-UAF1 of 0.1 to 10 µM.
As to `Cn1c(=N)n(Cc2ccc(-c3nc(C(F)(F)F)cn3C3COC3)cc2)c2nc(-c3ccccc3C(F)(F)F)ncc21` [Example T-077], the figures for the IC50 against USP1-UAF1, in the assay with MDA-MB-436 and with HCC1954 were 0.1 to 10 µM, 0.25 to 10 µM and at least 10 µM, respectively.
With `CNC(=O)c1nc(-c2ccccc2C(C)C)nc2c1n(C)c(=N)n2Cc1ccc(-c2nc(C(F)(F)F)cn2C)cc1` [Example A-39, 8-imino-2-(2-isopropylphenyl)-N, 7-dimethyl-9-(4-(1-methyl-4-(trifluoromethyl)-1H-imidazol-2-yl)benzyl)-8,9-dihydro-7H-purine-6-carboxamide], the IC50 on USP1-UAF1 was 0.1 to 10 µM; in the assay on MDA-MB-436, 0.25 to 10 µM; in the assay on HCC1954 it was at least 10 µM.
Take `Cn1cc(C(F)(F)F)nc1-c1ccc(Cn2c(=N)n(C)c3cnc(-c4cccnc4C4(C#N)CC4)nc32)cc1` [Example T-041]: the figures for the IC50 against USP1-UAF1, in the assay on MDA-MB-436 and in the assay on HCC1954 were 0.1 to 10 µM, 0.25 to 10 µM and at least 10 µM, respectively.
The matching figures for `COc1cc(C(F)(F)F)nn1-c1ccc(Cn2c(=N)n(C)c3cnc(-c4ccccc4C(F)(F)F)nc32)cn1` [Example T-055]: 0.1 to 10 µM, 0.25 to 10 µM and at least 10 µM.
The matching figures for `Cn1c(=N)n(Cc2ccc(-c3nc(C(F)(F)F)c[nH]3)c(F)c2)c2nc(-c3ccccc3C(F)(F)F)ncc21` [Example T-068]: 0.1 to 10 µM, 0.25 to 10 µM and 0.25 to 10 µM.
As for `CC#Cc1nc(-c2ccccc2Cl)nc2c1n(C)c(=N)n2Cc1ccc(-c2nc(Cl)cn2C)cc1` [Example A-45, 9-(4-(4-chloro-1-methyl-1H-imidazol-2-yl)benzyl)-2-(2-chlorophenyl)-7-methyl-6-(prop-1-yn-1-yl)-7,9-dihydro-8H-purin-8-imine], the IC50 against USP1-UAF1 fell in the range of 0.1 to 10 µM; with MDA-MB-436, 0.25 to 10 µM; in the assay on HCC1954, 0.25 to 10 µM.
Regarding `Cn1cc(C(F)(F)F)nc1-c1cc(F)c(Cn2c(=N)n(C)c3cnc(-c4ccccc4C(F)(F)F)nc32)c(F)c1` [Example T-046], the 50% inhibitory concentration (IC50) on USP1-UAF1 was 0.1 to 10 µM; in the assay on MDA-MB-436, 0.25 to 10 µM; in the assay on HCC1954 it was at least 10 µM.
For `CC(C)c1ccccc1-c1nc(C(=O)N(C)C)c2c(n1)n(Cc1ccc(-c3nc(C(F)(F)F)cn3C)cc1)c(=N)n2C` [Example A-40, 8-imino-2-(2-isopropylphenyl)-N,N, 7-trimethyl-9-(4-(1-methyl-4-(trifluoromethyl)-1H-imidazol-2-yl)benzyl)-8,9-dihydro-7H-purine-6-carboxamide], the IC50 against USP1-UAF1 was 0.1 to 10 µM; in the assay on MDA-MB-436, 0.25 to 10 µM; in the assay on HCC1954, at least 10 µM.
As for `Cn1cc(C(F)(F)F)nc1-c1ccc(Cn2c(=N)n(C)c3cnc(-c4cccnc4CC(F)(F)F)nc32)cc1` [Example T-042], the IC50 was 0.1 to 10 µM against USP1-UAF1, 0.25 to 10 µM in the assay on MDA-MB-436 and at least 10 µM in the assay with HCC1954.
`CNc1ncccc1-c1ncc2c(n1)n(Cc1ccc(-c3nc(C(F)(F)F)cn3C)cc1)c(=N)n2C` [Example T-075]: the IC50 was 0.1 to 10 µM at USP1-UAF1, 0.25 to 10 µM with MDA-MB-436 and 0.25 to 10 µM in the assay on HCC1954.
On USP1-UAF1, `CC(C)c1ccccc1-c1ncc2c(n1)n(Cc1ccc(-c3cccn3C)cc1)c(=N)n2C` [Example T-088] yielded an IC50 of 0.1 to 10 µM.
`CC(C)c1ccccc1-c1ncc2c(n1)n(Cc1ccc(-c3ncc[nH]3)cc1)c(=N)n2C` [Example A-4, 9-(4-(1H-imidazol-2-yl)benzyl)-2-(2-isopropylphenyl)-7-methyl-7H-purin-8(9H)-imine]: on USP1-UAF1, the IC50 lay within 0.1 to 10 µM.
As to `CC(C)c1ccccc1-c1ncc2c(n1)n(Cc1ccc(N3CCC(C(F)(F)F)C3)cc1)c(=N)n2C` (single isomer, unassigned) [Example A-10e, 2-(2-isopropylphenyl)-7-methyl-9-(4-(3-(trifluoromethyl)pyrrolidin-1-yl)benzyl)-7,9-dihydro-8H-purin-8-imine], at USP1-UAF1, the IC50 fell in the range of 0.1 to 10 µM.
Regarding `Cc1cccc(Cl)c1-c1ncc2c(n1)n(Cc1ccc(-c3nc(C(F)(F)F)cn3C)cc1)c(=N)n2C` [Example B-7, 2-(2-chloro-6-methylphenyl)-7-methyl-9-(4-(1-methyl-4-(trifluoromethyl)-1H-imidazol-2-yl)benzyl)-7,9-dihydro-8H-purin-8-imine], the IC50 against USP1-UAF1 lay in the range of 0.03 to 0.1 µM.
Consider `Cn1cc(Cl)nc1-c1ccc(Cn2c(=N)n(C)c3c(C#CC4CC4)nc(-c4ccccc4Cl)nc32)cc1` [Example A-46, 9-(4-(4-chloro-1-methyl-1H-imidazol-2-yl)benzyl)-2-(2-chlorophenyl)-6-(cyclopropylethynyl)-7-methyl-7,9-dihydro-8H-purin-8-imine], for which the IC50 in the assay with MDA-MB-436 and in the assay with HCC1954 was 0.25 to 10 µM throughout.

These data come from patent US20240059689A1, “PURINE DERIVATIVES AS ANTICANCER AGENTS” (Tango Therapeutics, Inc., priority 2021, published 2024).
